This is an account of results in patent US20250163038A1, “CBL-B MODULATORS AND USES THEREOF” (Nimbus Clio, Inc., priority 2021, published 2025).

Where two headings read alike, the source gives them in different places.

For assay [1], the target named is T1, Recombinant human c-Cbl (aa 47-435) (Homo sapiens, UniProt P22681).
T1 sequence (P22681 47-435): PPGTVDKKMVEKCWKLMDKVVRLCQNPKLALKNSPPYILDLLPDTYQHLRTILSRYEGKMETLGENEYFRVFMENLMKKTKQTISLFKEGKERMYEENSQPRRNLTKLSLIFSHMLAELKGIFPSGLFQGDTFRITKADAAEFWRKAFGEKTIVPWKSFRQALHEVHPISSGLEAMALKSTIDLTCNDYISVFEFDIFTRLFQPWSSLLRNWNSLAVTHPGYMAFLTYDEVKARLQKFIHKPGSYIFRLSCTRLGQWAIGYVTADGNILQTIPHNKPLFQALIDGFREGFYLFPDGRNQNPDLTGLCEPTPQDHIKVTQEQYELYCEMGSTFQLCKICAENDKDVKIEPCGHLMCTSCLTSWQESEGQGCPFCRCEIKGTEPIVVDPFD
Put plainly: c-Cbl Biochemical Assay (TR-FRET).

Assay [2] concerns the target Recombinant human Cbl-b (aa 36-427) (Homo sapiens, UniProt Q13191). The experiment in a line: Cbl-b Biochemical Assay (TR-FRET).
Assay [3] concerns Jurkat (clone E6-1) cells with NFAT luciferase reporter. Put plainly: Jurkat reporter assay (NFAT Luciferase). The assay is classed as cell-based. The settings on record: Homo sapiens; Jurkat NFAT luciferase reporter cells, anti-CD3 stimulation, 6 hr; read-out: Jurkat NFAT EC50.
Where [4] appears, read: hc-Cbl Biochemical Assay (TR-FRET), read-out: TR-FRET hcCbl IC50.

Chain of Recombinant human Cbl-b (aa 36-427) (Q13191 36-427): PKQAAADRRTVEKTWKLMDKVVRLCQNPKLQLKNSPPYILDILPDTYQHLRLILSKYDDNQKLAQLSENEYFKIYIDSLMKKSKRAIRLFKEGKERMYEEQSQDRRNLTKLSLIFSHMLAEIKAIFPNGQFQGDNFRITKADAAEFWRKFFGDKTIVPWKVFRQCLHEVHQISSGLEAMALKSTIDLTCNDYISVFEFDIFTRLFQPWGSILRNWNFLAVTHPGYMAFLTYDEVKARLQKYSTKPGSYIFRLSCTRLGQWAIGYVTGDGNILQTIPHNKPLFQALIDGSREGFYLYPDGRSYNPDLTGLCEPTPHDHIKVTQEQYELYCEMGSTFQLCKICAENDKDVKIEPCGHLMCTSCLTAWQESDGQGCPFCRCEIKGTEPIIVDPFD

In the case of `Cn1cnnc1-c1cc(Cl)ccc1-c1ccnc(-c2nc3cc(CN[C@@H]4CCC[C@@H]4O)cc(C(F)(F)F)c3o2)c1` [AER-8, (1S,2R)-2-(((2-(4-(4-Chloro-2-(4-methyl-4H-1,2,4-triazol-3-yl)phenyl)pyridin-2-yl)-7-(trifluoromethyl)benzo[d]oxazol-5-yl)methyl)amino)cyclopentan-1-ol], the IC50 in assay [1] (setting [4]) and in assay [2] (read-out: TR-FRET hCbl-b IC50) was less than 200 nM each time. Besides, the EC50 in assay [3] is less than 200 nM.
In the case of `Cc1cc(CO)cc2nc(-c3cc(-c4ccc(F)cc4-c4nncn4C)cc(C4CC4)n3)oc12` [AET-1, (2-{6-Cyclopropyl-4-[4-fluoro-2-(4-methyl-1,2,4-triazol-3-yl)phenyl]pyridin-2-yl}-7-methyl-1,3-benzoxazol-5-yl)methanol], the IC50 lay in the range of 1000 to 10000 nM in assay [1] (setting [4]) and 200 to 1000 nM in assay [2] (read-out: TR-FRET hCbl-b IC50). Further, the EC50 in assay [3] is 1000 to 10000 nM.
On to `Cc1cc(CN[C@@H]2CCC[C@@H]2O)cc2nc(-c3cc(-c4ccc(F)cc4-c4nncn4C)cc(C4CC4)n3)oc12` [AEU-2, (1S,2R)-2-{[(2-{6-Cyclopropyl-4-[4-fluoro-2-(4-methyl-1,2,4-triazol-3-yl)phenyl]pyridin-2-yl}-7-methyl-1,3-benzoxazol-5-yl)methyl]amino}cyclopentan-1-ol], for which the 50% inhibitory concentration (IC50) in assay [1] (setting [4]) and in assay [2] (read-out: TR-FRET hCbl-b IC50) was less than 200 nM each time. The EC50 in assay [3] is less than 200 nM.
On to `Cc1cc(CNCC2(O)CCC2)cc2nc(-c3cc(-c4ccc(F)cc4-c4nncn4C)cc(C4CC4)n3)oc12` [AEV-1, 1-({[(2-{6-Cyclopropyl-4-[4-fluoro-2-(4-methyl-1,2,4-triazol-3-yl)phenyl]pyridin-2-yl}-7-methyl-1,3-benzoxazol-5-yl)methyl]amino}methyl)cyclobutan-1-ol], for which the concentration for half-maximal inhibition (IC50) in assay [1] (setting [4]) and in assay [2] (read-out: TR-FRET hCbl-b IC50) was less than 200 nM each time. Further, the EC50 in assay [3] was less than 200 nM.
`CN(Cc1cc(C(F)(F)F)c2oc(-c3cc(-c4ccc(F)cc4-c4nncn4C)cc(C4CC4)n3)nc2c1)[C@@H]1CCC[C@@H]1O` [AEW-1, (1S, 2R)-2-{1[(2-{6-Cyclopropyl-4-[4-fluoro-2-(4-methyl-1,2,4-triazol-3-yl)phenyl]pyridin-2-yl}-7-(trifluoromethyl)-1,3-benzoxazol-5-yl)methyl](methyl)amino}cyclopentan-1-ol]: the IC50 in assay [1] (setting [4]) and in assay [2] (read-out: TR-FRET hCbl-b IC50) was less than 200 nM each time. Moreover, the EC50 in assay [3] was less than 200 nM.
Consider `COc1cc(CO)cc2nc(-c3cc(-c4ccc(F)cc4-c4nncn4C)cc(C4CC4)n3)oc12` [AEX-2, (2-{6-Cyclopropyl-4-[4-fluoro-2-(4-methyl-1,2,4-triazol-3-yl)phenyl]pyridin-2-yl}-7-methoxy-1,3-benzoxazol-5-yl)methanol], for which the IC50 in assay [1] (setting [4]) fell in the range of 1000 to 10000 nM; in assay [2] (read-out: TR-FRET hCbl-b IC50), 200 to 1000 nM. For the same molecule, the EC50 in assay [3] was in the range of 1000 to 10000 nM.
With `COc1cc(CN[C@@H]2CCC[C@@H]2O)cc2nc(-c3cc(-c4ccc(F)cc4-c4nncn4C)cc(C4CC4)n3)oc12` [AEY-2], the IC50 in assay [1] (setting [4]) and in assay [2] (read-out: TR-FRET hCbl-b IC50) was less than 200 nM throughout. Besides, in assay [3], the EC50 was less than 200 nM.
On to `COCCNCc1cc(C)c2oc(-c3cc(-c4ccc(F)cc4-c4nncn4C)cc(C4CC4)n3)nc2c1` [AEZ-1, [(2-{6-Cyclopropyl-4-[4-fluoro-2-(4-methyl-1,2,4-triazol-3-yl)phenyl]pyridin-2-yl}-7-methyl-1,3-benzoxazol-5-yl)methyl](2-methoxyethyl)amine], for which the IC50 in assay [1] (setting [4]) and in assay [2] (read-out: TR-FRET hCbl-b IC50) was less than 200 nM each time. Moreover, the EC50 in assay [3] was less than 200 nM.
Take `Cn1cnnc1-c1cc(F)ccc1-c1cccc(-c2nc3cc(CN4CC(C)(O)C4)cc(C(F)(F)F)c3o2)c1` [AF-2, 1-((2-(4′-Fluoro-2′-(4-methyl-4H-1,2,4-triazol-3-yl)-[1,1′-biphenyl]-3-yl)-7-(trifluoromethyl)benzo[d]oxazol-5-yl)methyl)-3-methylazetidin-3-ol]: the IC50 was 1000 to 10000 nM in assay [1] (setting [4]) and less than 200 nM in assay [2] (read-out: TR-FRET hCbl-b IC50). In addition, in assay [3], the EC50 is 200 to 1000 nM.
The like results for `Cn1cnnc1-c1cc(F)ccc1-c1cc(-c2nc3cc(CO)cc(F)c3o2)nc(C2CC2)c1` [AFA-2, (2-{6-Cyclopropyl-4-[4-fluoro-2-(4-methyl-1,2,4-triazol-3-yl)phenyl]pyridin-2-yl}-7-fluoro-1,3-benzoxazol-5-yl)methanol] were, in that order, 200 to 1000 nM, 200 to 1000 nM and 1000 to 10000 nM.
`Cn1cnnc1-c1cc(F)ccc1-c1cc(-c2nc3cc(CN[C@@H]4CCC[C@@H]4O)cc(F)c3o2)nc(C2CC2)c1` [AFB-2, (1S,2R)-2-{[(2-{6-Cyclopropyl-4-[4-fluoro-2-(4-methyl-1,2,4-triazol-3-yl)phenyl]pyridin-2-yl}-7-fluoro-1,3-benzoxazol-5-yl)methyl]amino}cyclopentan-1-ol]: the IC50 in assay [1] and in assay [2] was less than 200 nM in each case. For the same molecule, the EC50 in assay [3] was less than 200 nM.
Regarding `Cn1cnnc1-c1cc(F)ccc1-c1cc(-c2nc3cc(CNCC4(O)CCC4)ccc3o2)nc(C2CC2)c1` [AFC-1, 1-({[(2-{6-Cyclopropyl-4-[4-fluoro-2-(4-methyl-1,2,4-triazol-3-yl)phenyl]pyridin-2-yl}-1,3-benzoxazol-5-yl)methyl]amino}methyl)cyclobutan-1-ol], the IC50 in assay [1] (setting [4]) and in assay [2] (read-out: TR-FRET hCbl-b IC50) was less than 200 nM throughout. For the same molecule, the EC50 in assay [3] is less than 200 nM.
Turning to `Cn1cnnc1-c1cc(F)ccc1-c1cc(-c2nc3cc(CNCC(C)(C)O)ccc3o2)nc(C2CC2)c1` [AFD-1, 1-{[(2-{6-Cyclopropyl-4-[4-fluoro-2-(4-methyl-1,2,4-triazol-3-yl)phenyl]pyridin-2-yl}-1,3-benzoxazol-5-yl)methyl]amino}-2-methylpropan-2-ol], the IC50 in assay [1] (setting [4]) and in assay [2] (read-out: TR-FRET hCbl-b IC50) was less than 200 nM throughout. In assay [3], the EC50 was less than 200 nM.
With `Cn1cnnc1-c1cc(F)ccc1-c1cc(-c2nc3cc(CNCC4(O)CCCC4)ccc3o2)nc(C2CC2)c1` [AFE-1, 1-({[(2-{6-Cyclopropyl-4-[4-fluoro-2-(4-methyl-1,2,4-triazol-3-yl)phenyl]pyridin-2-yl}-1,3-benzoxazol-5-yl)methyl]amino}methyl)cyclopentan-1-ol], the IC50 in assay [1] (setting [4]) and in assay [2] (read-out: TR-FRET hCbl-b IC50) was less than 200 nM each time. Also, the EC50 in assay [3] is less than 200 nM.
Turning to `Cc1cc(CNCC2CCC2)cc2nc(-c3cc(-c4ccc(F)cc4-c4nncn4C)cc(C4CC4)n3)oc12` [AFF-1, 1-Cyclobutyl-N-((2-(6-cyclopropyl-4-(4-fluoro-2-(4-methyl-4H-1,2,4-triazol-3-yl)phenyl)pyridin-2-yl)-7-methylbenzo[d]oxazol-5-yl)methyl)methanamine], the IC50 in assay [1] (setting [4]) and in assay [2] (read-out: TR-FRET hCbl-b IC50) was less than 200 nM throughout. Besides, in assay [3], the EC50 was less than 200 nM.
In the case of `Cc1cc(CN(C)[C@@H]2CCC[C@@H]2O)cc2nc(-c3cc(-c4ccc(F)cc4-c4nncn4C)cc(C4CC4)n3)oc12` [AFG-1, (1S,2R)-2-(((2-(6-Cyclopropyl-4-(4-fluoro-2-(4-methyl-4H-1,2,4-triazol-3-yl)phenyl)pyridin-2-yl)-7-methylbenzo[d]oxazol-5-yl)methyl)(methyl)amino)cyclopentan-1-ol], the IC50 in assay [1] and in assay [2] was less than 200 nM throughout. Moreover, the EC50 in assay [3] is less than 200 nM.
Regarding `Cc1cc(CN(C)CC2(O)CCC2)cc2nc(-c3cc(-c4ccc(F)cc4-c4nncn4C)cc(C4CC4)n3)oc12` [AFH-2, 1-({[(2-{6-Cyclopropyl-4-[4-fluoro-2-(4-methyl-1,2,4-triazol-3-yl)phenyl]pyridin-2-yl}-7-methyl-1,3-benzoxazol-5-yl)methyl](methyl)amino}methyl)cyclobutan-1-ol], the IC50 in assay [1] (setting [4]) was 200 to 1000 nM; in assay [2] (read-out: TR-FRET hCbl-b IC50) it was less than 200 nM. In addition, the EC50 in assay [3] lay in the range of 200 to 1000 nM.
In the case of `Cn1cnnc1-c1cc(F)ccc1-c1cc(-c2nc3cc(CNCC4(O)CCC4)cc(F)c3o2)nc(C2CC2)c1` [AFI-1, 1-({[(2-{6-Cyclopropyl-4-[4-fluoro-2-(4-methyl-1,2,4-triazol-3-yl)phenyl]pyridin-2-yl}-7-fluoro-1,3-benzoxazol-5-yl)methyl]amino}methyl)cyclobutan-1-ol], the half-inhibitory concentration (IC50) in assay [1] (setting [4]) and in assay [2] (read-out: TR-FRET hCbl-b IC50) was less than 200 nM each time. In addition, the EC50 in assay [3] was less than 200 nM.
For `Cn1cnnc1-c1cc(F)ccc1-c1cc(-c2nc3cc(CNCC4(F)CCC4)cc(F)c3o2)nc(C2CC2)c1` [AFJ-1, [(2-{6-Cyclopropyl-4-[4-fluoro-2-(4-methyl-1,2,4-triazol-3-yl)phenyl]pyridin-2-yl}-7-fluoro-1,3-benzoxazol-5-yl)methyl][(1-fluorocyclobutyl)methyl]amine], the IC50 in assay [1] (setting [4]) and in assay [2] (read-out: TR-FRET hCbl-b IC50) was less than 200 nM in each case. Besides, the EC50 in assay [3] lay within 200 to 1000 nM.
As to `CN(Cc1cc(F)c2oc(-c3cc(-c4ccc(F)cc4-c4nncn4C)cc(C4CC4)n3)nc2c1)[C@@H]1CCC[C@@H]1O` [AFK-1, (1S,2R)-2-{[(2-{6-Cyclopropyl-4-[4-fluoro-2-(4-methyl-1,2,4-triazol-3-yl)phenyl]pyridin-2-yl}-7-fluoro-1,3-benzoxazol-5-yl)methyl](methyl)amino}cyclopentan-1-ol], the IC50 in assay [1] (setting [4]) and in assay [2] (read-out: TR-FRET hCbl-b IC50) was less than 200 nM in each case. In addition, the EC50 in assay [3] is 200 to 1000 nM.
